The source of these data is the NIST ThermoML archive (doi:10.1016/j.fluid.2014.11.020).

Each structure is given as a SMILES string. Numbers after ± are expanded uncertainties.

The series can be described thus: activity coefficient (dimensionless); of the first substance listed, at infinite dilution; xn = mol fraction of the nth substance listed. As to conditions: Liquid, Chromatography, x1 = 0.

Consider `c1ccccc1` [benzene] + CCCCCCCCn1cc[n+](COCCC)c1C.N#C[N-]C#N, for which the activity coefficient stood at 1.39 ± 0.09 (323.15 K), 1.23 ± 0.08 (333.15 K) and 1.07 ± 0.07 (343.15 K).
Take `CCCO` [propan-1-ol] + CCCOC[n+]1ccc(N(C)C)cc1.O=S(=O)([N-]S(=O)(=O)C(F)(F)F)C(F)(F)F: the activity coefficient by setting is: (323.15 K) 1.93 ± 0.13; (333.15 K) 1.72 ± 0.12; (343.15 K) 1.53 ± 0.1.
The corresponding values for `Cc1cccc(C)c1` [1,3-dimethylbenzene] + CN(C)c1cc[n+](COCCCOC[n+]2ccc(N(C)C)cc2)cc1.O=S(=O)([N-]S(=O)(=O)C(F)(F)F)C(F)(F)F.O=S(=O)([N-]S(=O)(=O)C(F)(F)F)C(F)(F)F are 1.36 ± 0.09, 1.38 ± 0.09 and 1.4 ± 0.09.
The like results for `CC(C)OC(C)C` [diisopropyl ether] + CCCCCCCCn1cc[n+](COCCCOC[n+]2ccn(CCCCCCCC)c2C)c1C.O=S(=O)([N-]S(=O)(=O)C(F)(F)F)C(F)(F)F.O=S(=O)([N-]S(=O)(=O)C(F)(F)F)C(F)(F)F were, in that order, 1.54 ± 0.1, 1.56 ± 0.1 and 1.54 ± 0.1.
With `CCCO` [propan-1-ol] + CN(C)c1cc[n+](COCCCOC[n+]2ccc(N(C)C)cc2)cc1.O=S(=O)([N-]S(=O)(=O)C(F)(F)F)C(F)(F)F.O=S(=O)([N-]S(=O)(=O)C(F)(F)F)C(F)(F)F, the activity coefficient (323.15 K) came out at 1.51 ± 0.1, the activity coefficient (333.15 K) was 1.37 ± 0.09 and the activity coefficient (343.15 K) amounted to 1.22 ± 0.08.
For `CO` [methanol] + Cn1cc[n+](COCCCOC[n+]2ccn(C)c2)c1.N#C[N-]C#N.N#C[N-]C#N, the activity coefficient is 0.38 ± 0.03 (323.15 K), 0.38 ± 0.03 (333.15 K) and 0.37 ± 0.03 (343.15 K).
For the molecule `CCCO` [propan-1-ol] + CCCCCCCCn1cc[n+](COCCCOC[n+]2ccn(CCCCCCCC)c2C)c1C.O=S(=O)([N-]S(=O)(=O)C(F)(F)F)C(F)(F)F.O=S(=O)([N-]S(=O)(=O)C(F)(F)F)C(F)(F)F, the activity coefficient is, setting by setting: (323.15 K) 0.72 ± 0.05; (333.15 K) 0.65 ± 0.04; (343.15 K) 0.77 ± 0.05.
As for `CCC(C)=O` [butanone] + CCCCCCCCn1cc[n+](COCCCOC[n+]2ccn(CCCCCCCC)c2C)c1C.N#C[N-]C#N.N#C[N-]C#N, the activity coefficient reads like this: (323.15 K) 0.56 ± 0.04; (333.15 K) 0.5 ± 0.04; (343.15 K) 0.46 ± 0.04.
Consider `CC1CCCC1` [methylcyclopentane] + CCCOC[n+]1ccn(C)c1.N#C[N-]C#N, for which the activity coefficient worked out at 27.7 ± 1.9 (323.15 K) and 24.4 ± 1.7 (333.15 K).
Regarding `CCCCCC` [hexane] + CCCCCCCCn1cc[n+](COCCCOC[n+]2ccn(CCCCCCCC)c2C)c1C.O=S(=O)([N-]S(=O)(=O)C(F)(F)F)C(F)(F)F.O=S(=O)([N-]S(=O)(=O)C(F)(F)F)C(F)(F)F, the activity coefficient reads like this: (323.15 K) 3.74 ± 0.25; (333.15 K) 3.59 ± 0.24; (343.15 K) 3.45 ± 0.23.
The like results for `c1ccsc1` [thiophene] + Cn1cc[n+](COCCCOC[n+]2ccn(C)c2)c1.O=S(=O)([N-]S(=O)(=O)C(F)(F)F)C(F)(F)F.O=S(=O)([N-]S(=O)(=O)C(F)(F)F)C(F)(F)F were, in that order, 0.77 ± 0.05, 0.78 ± 0.05 and 0.78 ± 0.05.
As for `Cc1cccc(C)c1` [1,3-dimethylbenzene] + N#C[N-]C#N.N#C[N-]C#N.c1ccc(Cn2cc[n+](COCCCOC[n+]3ccn(Cc4ccccc4)c3)c2)cc1, the activity coefficient runs as follows: (323.15 K) 8.85 ± 0.6; (333.15 K) 8.51 ± 0.58; (343.15 K) 8.32 ± 0.57.
As for `C#CCCCCC` [1-heptyne] + CCCOC[n+]1ccn(Cc2ccccc2)c1.N#C[N-]C#N, the activity coefficient was 6.34 ± 0.43 (323.15 K) and 6.08 ± 0.41 (333.15 K).
As for `CCCCCCCCCCC` [undecane] + CCCOC[n+]1ccn(C)c1.O=S(=O)([N-]S(=O)(=O)C(F)(F)F)C(F)(F)F, the activity coefficient is, setting by setting: (323.15 K) 89.7 ± 6.2; (333.15 K) 85.9 ± 5.9; (343.15 K) 75.3 ± 5.2.
The like results for `CO` [methanol] + CCCCCCCCn1cc[n+](COCCC)c1C.O=S(=O)([N-]S(=O)(=O)C(F)(F)F)C(F)(F)F were, in that order, 0.98 ± 0.06, 0.89 ± 0.06 and 0.85 ± 0.05.
In the case of `CC#N` [acetonitrile] + CCCCCCCCn1cc[n+](COCCCOC[n+]2ccn(CCCCCCCC)c2C)c1C.O=S(=O)([N-]S(=O)(=O)C(F)(F)F)C(F)(F)F.O=S(=O)([N-]S(=O)(=O)C(F)(F)F)C(F)(F)F, the activity coefficient turned out to be 0.26 ± 0.03 (323.15 K), 0.25 ± 0.03 (333.15 K) and 0.25 ± 0.03 (343.15 K).
Take `CO` [methanol] + CCCOC[n+]1ccn(C)c1.O=S(=O)([N-]S(=O)(=O)C(F)(F)F)C(F)(F)F: the activity coefficient was 1.2 ± 0.08 (323.15 K), 1.12 ± 0.07 (333.15 K) and 1.04 ± 0.07 (343.15 K).
The corresponding values for `CO` [methanol] + CCCOC[n+]1ccn(Cc2ccccc2)c1.F[B-](F)(F)F are 1.13 ± 0.07, 1.04 ± 0.07 and 0.97 ± 0.06.
Consider `CC(C)CO` [2-methyl-1-propanol] + Cn1cc[n+](COCCCOC[n+]2ccn(C)c2)c1.O=S(=O)([N-]S(=O)(=O)C(F)(F)F)C(F)(F)F.O=S(=O)([N-]S(=O)(=O)C(F)(F)F)C(F)(F)F, for which the activity coefficient by setting is: (323.15 K) 1.87 ± 0.13; (333.15 K) 1.71 ± 0.11; (343.15 K) 1.5 ± 0.1.
The like results for `CC(C)O` [propan-2-ol] + CCCOC[n+]1ccc(N(C)C)cc1.O=S(=O)([N-]S(=O)(=O)C(F)(F)F)C(F)(F)F were, in that order, 1.7 ± 0.11, 1.62 ± 0.11 and 1.45 ± 0.1.
For the molecule `CC(C)CO` [2-methyl-1-propanol] + CN(C)c1cc[n+](COCCCOC[n+]2ccc(N(C)C)cc2)cc1.O=S(=O)([N-]S(=O)(=O)C(F)(F)F)C(F)(F)F.O=S(=O)([N-]S(=O)(=O)C(F)(F)F)C(F)(F)F, the activity coefficient is, setting by setting: (323.15 K) 1.85 ± 0.12; (333.15 K) 1.66 ± 0.11; (343.15 K) 1.5 ± 0.1.
The corresponding values for `Cc1ccc(C)cc1` [1,4-dimethylbenzene] + CCCOC[n+]1ccn(Cc2ccccc2)c1.F[B-](F)(F)F are 5.12 ± 0.35, 4.85 ± 0.33 and 4.88 ± 0.33.
The like results for `ClCCl` [dichloromethane] + CCCCCCCCn1cc[n+](COCCCOC[n+]2ccn(CCCCCCCC)c2C)c1C.N#C[N-]C#N.N#C[N-]C#N were, in that order, 0.28 ± 0.03, 0.29 ± 0.03 and 0.31 ± 0.03.
The corresponding values for `Cc1cccc(C)c1` [1,3-dimethylbenzene] + CCCOC[n+]1ccn(C)c1.F[B-](F)(F)F are 11 ± 0.75, 10.8 ± 0.74 and 10.7 ± 0.73.
Take `CCC(C)CC` [3-methylpentane] + CCCCCCCCn1cc[n+](COCCCOC[n+]2ccn(CCCCCCCC)c2C)c1C.O=S(=O)([N-]S(=O)(=O)C(F)(F)F)C(F)(F)F.O=S(=O)([N-]S(=O)(=O)C(F)(F)F)C(F)(F)F: the activity coefficient reads like this: (323.15 K) 3.59 ± 0.24; (333.15 K) 3.36 ± 0.23; (343.15 K) 3.13 ± 0.21.
Consider `C#CCCCC` [1-hexyne] + CCCOC[n+]1ccn(C)c1.O=S(=O)([N-]S(=O)(=O)C(F)(F)F)C(F)(F)F, for which the activity coefficient came out at 3.39 ± 0.23 (323.15 K), 3.4 ± 0.23 (333.15 K) and 3.4 ± 0.23 (343.15 K).
In the case of `CC#N` [acetonitrile] + CCCOC[n+]1ccn(C)c1.O=S(=O)([N-]S(=O)(=O)C(F)(F)F)C(F)(F)F, the activity coefficient runs as follows: (323.15 K) 0.46 ± 0.04; (333.15 K) 0.46 ± 0.04; (343.15 K) 0.46 ± 0.04.
On to `C#CCCCCC` [1-heptyne] + CCCCCCCCn1cc[n+](COCCC)c1C.N#C[N-]C#N, for which the activity coefficient stood at 2.11 ± 0.14 (323.15 K) and 2.09 ± 0.14 (333.15 K).
In the case of `CC(C)OC(C)C` [diisopropyl ether] + CCCCCCCCn1cc[n+](COCCC)c1C.O=S(=O)([N-]S(=O)(=O)C(F)(F)F)C(F)(F)F, the activity coefficient is, setting by setting: (323.15 K) 1.95 ± 0.13; (333.15 K) 1.86 ± 0.13; (343.15 K) 1.82 ± 0.12.
On to `CCCC(C)=O` [pentan-2-one] + CCCOC[n+]1ccn(Cc2ccccc2)c1.N#C[N-]C#N, for which the activity coefficient (323.15 K) was found to be 1.45 ± 0.1, the activity coefficient (333.15 K) came out at 1.51 ± 0.1 and the activity coefficient (343.15 K) turned out to be 1.51 ± 0.1.
Regarding `CCCCO` [butan-1-ol] + CCCOC[n+]1ccn(Cc2ccccc2)c1.F[B-](F)(F)F, the activity coefficient by setting is: (323.15 K) 3 ± 0.2; (333.15 K) 2.59 ± 0.18; (343.15 K) 2.39 ± 0.16.
The corresponding values for `CCCCCCC` [heptane] + CCCOC[n+]1ccn(Cc2ccccc2)c1.N#C[N-]C#N are 48 ± 3.3, 44.9 ± 3.1 and 41.8 ± 2.9.
The like results for `CCCO` [propan-1-ol] + CCCOC[n+]1ccn(Cc2ccccc2)c1.N#C[N-]C#N were, in that order, 0.84 ± 0.05, 0.7 ± 0.05 and 0.69 ± 0.05.
`CCCCCCCC` [octane] + CCCOC[n+]1ccn(C)c1.F[B-](F)(F)F: the activity coefficient turned out to be 292 ± 20 (323.15 K), 213 ± 15 (333.15 K) and 182 ± 13 (343.15 K).
In the case of `CCCCCCC` [heptane] + CN(C)c1cc[n+](COCCCOC[n+]2ccc(N(C)C)cc2)cc1.O=S(=O)([N-]S(=O)(=O)C(F)(F)F)C(F)(F)F.O=S(=O)([N-]S(=O)(=O)C(F)(F)F)C(F)(F)F, the activity coefficient was 28.9 ± 2 (323.15 K), 23.3 ± 1.6 (333.15 K) and 24.3 ± 1.7 (343.15 K).
`Cc1ccccc1C` [1,2-dimethylbenzene] + CCCOC[n+]1ccn(Cc2ccccc2)c1.F[B-](F)(F)F: the activity coefficient (323.15 K) was found to be 4.3 ± 0.29, the activity coefficient (333.15 K) turned out to be 4.17 ± 0.28 and the activity coefficient (343.15 K) was 4.22 ± 0.29.
The corresponding values for `CCCO` [propan-1-ol] + CCCOC[n+]1ccn(C)c1.O=S(=O)([N-]S(=O)(=O)C(F)(F)F)C(F)(F)F are 1.86 ± 0.13, 1.66 ± 0.11 and 1.5 ± 0.1.
